According to ChEMBL document CHEMBL3091271, “Discovery of triazine mimetics as potent antileishmanial agents” (ACS Med Chem Lett, 2013):
The source made the active and inactive calls. The calls are words filed in the database; no cut-off is given here.

Assays:
[1] = (§1) Selectivity index, ratio of CC50 to African green monkey Vero cells to IC50 for amastigote stage of Leishmania donovani MHOM/IN/80/Dd8; format: functional
[2] = Cytotoxicity against African green monkey Vero cells assessed as cell viability after 72 hrs by MTT assay; format: cell-based; settings: chlorocebus sabaeus
Leishmania donovani [3] = test: Antileishmanial activity against amastigote stage of Leishmania donovani MHOM/IN/80/Dd8 infected in mouse J-774A.1 cells after 72 hrs by luciferase reporter gene assay; format: functional, organism-based; settings: MHOM/IN/80/Dd8, J774.A1, 72 h
Vero = test: as §1; format: functional
[4] = Immunostimulatory activity in Leishmania infected mouse J774A1 cells assessed as upregulation of TNF-alpha level at IC50 measured at 48 hrs by sandwich ELISA; format: functional, cell-based; settings: J774.A1
[5] = Immunostimulatory activity in Leishmania infected mouse J774A1 cells assessed as upregulation of IL-12 level at IC50 measured at 48 hrs by sandwich ELISA; format: functional, cell-based; settings: J774.A1
J774.A1 [6] = test: Immunostimulatory activity in Leishmania infected mouse J774A1 cells assessed as downregulation of TGF-beta level at IC50 measured at 24 hrs by sandwich ELISA relative to untreated infected cell; format: functional
J774.A1 [7] = test: Immunostimulatory activity in Leishmania infected mouse J774A1 cells assessed as increase in nitric oxide production at IC50 measured at 24 hrs by sandwich ELISA relative to untreated infected cell; format: functional
[8] = Immunostimulatory activity in Leishmania infected mouse J774A1 cells assessed as upregulation of TNF-alpha level at IC50 measured at 24 hrs by sandwich ELISA relative to untreated infected cell; format: functional, cell-based; settings: J774.A1
[9] = Immunostimulatory activity in Leishmania infected mouse J774A1 cells assessed as upregulation of IL-12 level at IC50 measured at 24 hrs by sandwich ELISA relative to untreated infected cell; format: functional, cell-based; settings: J774.A1
Syrian golden hamster = test: Toxicity in golden hamster infected with amastigote stage of Leishmania donovani MHOM/IN/80/Dd8 assessed as appearance of abnormal behavior at 50 mg/kg/day, ip measured for 5 days; format: organism-based, Mesocricetus auratus; parameters: route intraperitoneal; settings: in vivo, 120 h
Leishmania donovani [10] = test: Antileishmanial activity against amastigote stage of Leishmania donovani MHOM/IN/80/Dd8 infected in golden hamster assessed as inhibition of parasite multiplication in splen at 50 mg/kg/day, ip administered for 5 days measured on day 7 by Giemsa staining relative to control; format: functional; settings: MHOM/IN/80/Dd8, ip, route intraperitoneal
J774.A1 [11] = test: Immunostimulatory activity in Leishmania infected mouse J774A1 cells assessed as downregulation of IL-10 level at IC50 measured at 48 hrs by sandwich ELISA; format: functional, cell-based
J774.A1 [12] = test: Immunostimulatory activity in Leishmania infected mouse J774A1 cells assessed as downregulation of IL-10 level at IC50 measured at 24 hrs by sandwich ELISA; format: functional, cell-based
J774.A1 [13] = test: Immunostimulatory activity in Leishmania infected mouse J774A1 cells assessed as downregulation of TGF-beta level at IC50 measured at 48 hrs by sandwich ELISA; format: functional, cell-based
J774.A1 [14] = test: Immunostimulatory activity in Leishmania infected mouse J774A1 cells assessed as increase in nitric oxide production at IC50 measured at 48 hrs by sandwich ELISA; format: functional, cell-based

| Compound | Ratio CC50/IC50 [1] | CC50 at 72 h [2] | IC50 (Leishmania donovani [3]) | further results |
| --- | --- | --- | --- | --- |
| CN1CCN(c2nc(NCCCCOc3nc(Nc4ccccc4)nc(N4CCN(C)CC4)n3)nc(Nc3ccccc3)n2)CC1 | 15.08 | 20.1 µM | 1.33 µM | – |
| CCCCCCCCCCCCCCCCOP(=O)([O-])OCC[N+](C)(C)C [MILTEFOSINE] | 6.56 | – | 8.1 µM | – |
| CCN1CCN(c2nc(NCCCCOc3nc(Nc4ccccc4)nc(N4CCN(CC)CC4)n3)nc(Nc3ccccc3)n2)CC1 | 18.87 | 16.2 µM | 0.86 µM | – |
| c1ccc(Nc2nc(NCCCCOc3nc(Nc4ccccc4)nc(NC4CC4)n3)nc(NC3CC3)n2)cc1 | – | – | > 40 µM | – |
| CCCNc1nc(Nc2ccccc2)nc(OCCCCNc2nc(Nc3ccccc3)nc(NC3CC3)n2)n1 | >150.94 | > 400 µM | 2.65 µM | – |
| CC(C)Nc1nc(NCCCCOc2nc(Nc3ccccc3)nc(NC(C)C)n2)nc(Nc2ccccc2)n1 | >113.96 | > 400 µM | 3.51 µM | – |
| CCCCNc1nc(NCCCCOc2nc(NCCCC)nc(Nc3ccccc3)n2)nc(Nc2ccccc2)n1 | >124.61 | > 400 µM | 3.21 µM | – |
| c1ccc(Nc2nc(NCCCCOc3nc(Nc4ccccc4)nc(N4CCCc5ccccc54)n3)nc(N3CCCc4ccccc43)n2)cc1 | 1.9 | 17.1 µM | 8.98 µM | – |
| Sodium stibogluconate | – | – | – | Ratio CC50/IC50 (Vero): 8.56 |
| CCCNc1nc(NCCCCOc2nc(NCCC)nc(Nc3ccccc3)n2)nc(Nc2ccccc2)n1 | 108.58 | 216 µM | 1.99 µM | Activity [4]: inactive; Activity [5]: inactive; fold change (FC) (J774.A1 [6]): 1.8; fold change (FC) (J774.A1 [7]): 2; fold change (FC) [8]: 2; fold change (FC) [9]: 3; Activity (Syrian golden hamster): Non-toxic; inhibition in vivo at 50 mg/kg/day (Leishmania donovani [10]): 74.4%; Activity (J774.A1 [11]): inactive; Activity (J774.A1 [12]): Active; Activity (J774.A1 [13]): inactive; Activity (J774.A1 [14]): inactive |
| c1ccc(Nc2nc(NCCCCOc3nc(NCCN4CCOCC4)nc(Nc4ccccc4)n3)nc(NCCN3CCOCC3)n2)cc1 | 39.61 | 115 µM | 2.91 µM | – |
| CCCCCNc1nc(NCCCCOc2nc(NCCCCC)nc(Nc3ccccc3)n2)nc(Nc2ccccc2)n1 | >61.92 | > 400 µM | 6.46 µM | – |
| c1ccc(Nc2nc(NCCCCOc3nc(NCCCN4CCOCC4)nc(Nc4ccccc4)n3)nc(NCCCN3CCOCC3)n2)cc1 | 8.11 | 13.8 µM | 1.7 µM | – |
| N=C(N)c1ccc(OCCCCCOc2ccc(C(=N)N)cc2)cc1 [PENTAMIDINE] | 6.27 | 85.9 µM | 13.7 µM | – |
| c1ccc(Nc2nc(NCCCCCOc3nc(Nc4ccccc4)nc(N4CCOCC4)n3)nc(N3CCOCC3)n2)cc1 | – | – | > 40 µM | – |
| CCCNc1nc(NCCCCCOc2nc(NCCC)nc(Nc3ccccc3)n2)nc(Nc2ccccc2)n1 | – | – | > 40 µM | – |
| CC(C)(C)Nc1nc(NCCCCOc2nc(Nc3ccccc3)nc(NC(C)(C)C)n2)nc(Nc2ccccc2)n1 | 257.48 | 198 µM | 0.77 µM | Activity (Syrian golden hamster): Non-toxic; inhibition in vivo at 50 mg/kg/day (Leishmania donovani [10]): 62.6% |
| Clc1nc(NCCCCCOc2nc(Cl)nc(Nc3ccccc3)n2)nc(Nc2ccccc2)n1 | 1.9 | 17.1 µM | 8.98 µM | – |
| CCCNc1nc(NCCCCOc2nc(Nc3ccccc3)nc(NC3CC3)n2)nc(Nc2ccccc2)n1 | 2.2 | 18.2 µM | 8.26 µM | – |
| Clc1nc(NCCCCOc2nc(Cl)nc(Nc3ccccc3)n2)nc(Nc2ccccc2)n1 | 0.75 | 7.74 µM | 10.3 µM | – |
| c1ccc(Nc2nc(NCCCCOc3nc(Nc4ccccc4)nc(N4CCc5ccccc5C4)n3)nc(N3CCc4ccccc4C3)n2)cc1 | >53.19 | > 400 µM | 7.52 µM | – |
| c1ccc(Nc2nc(NCCCCOc3nc(Nc4ccccc4)nc(N4CCOCC4)n3)nc(N3CCOCC3)n2)cc1 | 87.5 | 276 µM | 3.15 µM | – |
